Test results published in patent US10392391B2 (Vertex Pharmaceuticals Incorporated, priority 2012, dated 2019).

The compounds below were run against ATR kinase (full-length ATR) (Homo sapiens (Human), UniProt Q13535) (assay: ATR inhibition assay (radioactive-phosphate incorporation)). Conditions: not given.
Chain of ATR kinase (full-length ATR) (Q13535 whole entry): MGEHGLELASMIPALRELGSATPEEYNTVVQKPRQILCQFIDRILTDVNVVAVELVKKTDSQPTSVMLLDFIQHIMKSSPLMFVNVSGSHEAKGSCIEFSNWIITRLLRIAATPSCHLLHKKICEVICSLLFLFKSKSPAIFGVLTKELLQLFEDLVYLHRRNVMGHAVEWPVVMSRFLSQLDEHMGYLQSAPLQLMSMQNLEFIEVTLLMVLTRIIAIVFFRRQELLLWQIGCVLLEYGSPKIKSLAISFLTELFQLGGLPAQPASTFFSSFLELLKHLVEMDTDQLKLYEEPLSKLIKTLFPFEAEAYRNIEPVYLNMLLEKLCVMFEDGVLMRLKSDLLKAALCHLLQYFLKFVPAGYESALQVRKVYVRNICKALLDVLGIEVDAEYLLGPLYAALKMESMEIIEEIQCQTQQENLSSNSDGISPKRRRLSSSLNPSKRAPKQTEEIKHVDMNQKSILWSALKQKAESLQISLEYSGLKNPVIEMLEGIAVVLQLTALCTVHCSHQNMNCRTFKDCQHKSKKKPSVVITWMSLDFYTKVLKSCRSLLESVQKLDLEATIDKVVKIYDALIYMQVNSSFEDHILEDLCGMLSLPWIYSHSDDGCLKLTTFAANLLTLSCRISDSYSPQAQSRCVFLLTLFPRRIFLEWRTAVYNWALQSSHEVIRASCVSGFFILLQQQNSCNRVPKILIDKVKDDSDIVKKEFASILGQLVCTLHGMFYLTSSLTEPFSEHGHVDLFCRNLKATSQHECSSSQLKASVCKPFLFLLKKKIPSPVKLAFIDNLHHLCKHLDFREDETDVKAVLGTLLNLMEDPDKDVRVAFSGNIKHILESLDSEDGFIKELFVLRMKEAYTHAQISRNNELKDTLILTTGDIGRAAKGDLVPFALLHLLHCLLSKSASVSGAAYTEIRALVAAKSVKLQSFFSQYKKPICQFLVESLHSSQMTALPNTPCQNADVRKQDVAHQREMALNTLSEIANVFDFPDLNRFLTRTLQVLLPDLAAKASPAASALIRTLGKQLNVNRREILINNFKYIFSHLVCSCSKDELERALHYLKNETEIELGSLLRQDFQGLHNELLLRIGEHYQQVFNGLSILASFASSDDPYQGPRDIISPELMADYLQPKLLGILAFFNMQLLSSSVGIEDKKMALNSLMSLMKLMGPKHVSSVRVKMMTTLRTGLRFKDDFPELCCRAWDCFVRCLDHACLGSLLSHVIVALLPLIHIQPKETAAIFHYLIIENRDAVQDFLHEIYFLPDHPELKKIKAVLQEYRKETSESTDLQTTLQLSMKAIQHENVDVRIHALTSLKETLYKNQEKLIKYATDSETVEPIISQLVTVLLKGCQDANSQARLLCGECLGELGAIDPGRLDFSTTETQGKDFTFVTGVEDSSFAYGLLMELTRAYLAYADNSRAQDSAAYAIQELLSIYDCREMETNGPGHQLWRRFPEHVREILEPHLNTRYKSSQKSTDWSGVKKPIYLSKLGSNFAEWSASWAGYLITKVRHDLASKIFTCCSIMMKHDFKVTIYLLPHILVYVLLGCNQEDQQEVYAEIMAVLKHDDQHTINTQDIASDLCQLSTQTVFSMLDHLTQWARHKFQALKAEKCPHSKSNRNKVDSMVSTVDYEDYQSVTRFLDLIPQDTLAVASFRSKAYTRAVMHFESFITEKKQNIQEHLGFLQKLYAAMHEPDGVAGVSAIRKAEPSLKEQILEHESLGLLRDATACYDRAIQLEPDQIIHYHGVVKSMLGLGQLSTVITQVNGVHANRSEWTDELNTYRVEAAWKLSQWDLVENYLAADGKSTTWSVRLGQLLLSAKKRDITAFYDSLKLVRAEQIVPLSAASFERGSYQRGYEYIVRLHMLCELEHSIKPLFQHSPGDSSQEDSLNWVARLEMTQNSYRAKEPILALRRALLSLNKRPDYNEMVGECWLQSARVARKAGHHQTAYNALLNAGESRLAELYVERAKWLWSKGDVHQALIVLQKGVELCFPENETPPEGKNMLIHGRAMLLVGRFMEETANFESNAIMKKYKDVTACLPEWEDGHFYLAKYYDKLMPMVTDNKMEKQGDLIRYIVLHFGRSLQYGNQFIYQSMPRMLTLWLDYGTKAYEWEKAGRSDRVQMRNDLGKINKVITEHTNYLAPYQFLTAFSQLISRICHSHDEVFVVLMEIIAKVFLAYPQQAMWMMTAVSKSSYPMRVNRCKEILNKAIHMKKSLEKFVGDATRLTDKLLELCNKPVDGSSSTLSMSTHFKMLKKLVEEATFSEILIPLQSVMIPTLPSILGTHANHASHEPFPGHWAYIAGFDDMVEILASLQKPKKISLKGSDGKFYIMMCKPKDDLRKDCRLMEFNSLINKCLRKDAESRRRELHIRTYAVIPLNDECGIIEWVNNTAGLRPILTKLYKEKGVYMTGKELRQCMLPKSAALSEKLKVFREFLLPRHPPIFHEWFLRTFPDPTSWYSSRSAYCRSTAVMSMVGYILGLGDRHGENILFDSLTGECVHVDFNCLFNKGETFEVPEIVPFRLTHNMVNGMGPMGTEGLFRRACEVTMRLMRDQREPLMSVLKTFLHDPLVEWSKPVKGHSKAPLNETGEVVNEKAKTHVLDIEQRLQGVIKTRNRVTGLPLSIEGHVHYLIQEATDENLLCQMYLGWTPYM
Type: biochemical
Method in brief: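 Ki(app) was fitted by non-linear regression to background-corrected initial rates. Full-length ATR (5 nM) phosphorylated 800 μM peptide using 10 μM [γ-33P]ATP at 25° C in Tris/HCl pH 7.5 buffer with MgCl2, DTT and 7% DMSO. After 10-minute compound pre-incubation and 24-hour reaction, phosphocellulose filters were scintillation counted.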
Work on `CN1CCN(c2cc(Cl)ncc2NC(=O)c2c(N)nn3cc(Cl)cnc23)CC1` [I-N-52, 2-amino-6-chloro-N-(6-chloro-4-(4-methylpiperazin-1-yl)pyridin-3-yl)pyrazolo[1,5-a]pyrimidine-3-carboxamide] yielded a Ki of 1000 to 5000 nM.
With `CN(C)CC1(O)CCN(c2ccncc2NC(=O)c2c(N)nn3cc(Cl)cnc23)CC1` [I-N-36, 2-amino-6-chloro-N-(4-(4-((dimethylamino)methyl)-4-hydroxypiperidin-1-yl)pyridin-3-yl)pyrazolo[1,5-a]pyrimidine-3-carboxamide] the Ki was 1000 to 5000 nM.
For `Nc1nn2cc(F)cnc2c1C(=O)Nc1cncc(F)c1N1CCC(C(=O)N2CCN3CCC2C3)CC1` (stereo not shown) [I-G-46, N-(4-(4-(1,4-diazabicyclo[3.2.1]octane-4-carbonyl)piperidin-1-yl)-5-fluoropyridin-3-yl)-2-amino-6-fluoropyrazolo[1,5-a]pyrimidine-3-carboxamide], the Ki was 1000 to 5000 nM.

Same assay, conditions: Ki(app), 5 nM full-length ATR, 10 μM ATP, 25° C.
Work on `Nc1nn2cc(F)cnc2c1C(=O)Nc1cncc(F)c1N1CCN(C(=O)C2CN3CCC2CC3)CC1` (stereo not shown) [I-N-130, 2-amino-6-fluoro-N-(5-fluoro-4-(4-(quinuclidine-3-carbonyl)piperazin-1-yl)pyridin-3-yl)pyrazolo[1,5-a]pyrimidine-3-carboxamide] yielded a Ki of 10 to 1000 nM.
For `COC1(C)CN(C(=O)C2CCN(c3ccncc3NC(=O)c3c(N)nn4cc(F)cnc34)CC2)C1` [I-G-79, 2-amino-6-fluoro-N-(4-(4-(3-methoxy-3-methylazetidine-1-carbonyl)piperidin-1-yl)pyridin-3-yl)pyrazolo[1,5-a]pyrimidine-3-carboxamide], the Ki was 10 to 1000 nM.
For `COCC1CCN(c2ccncc2NC(=O)c2c(N)nn3cc(F)cnc23)CC1` [I-N-282, 2-amino-6-fluoro-N-(4-(4-(methoxymethyl)piperidin-1-yl)pyridin-3-yl)pyrazolo[1,5-a]pyrimidine-3-carboxamide], the Ki was 10 to 1000 nM.
For `N#CCc1cnc2c(C(=O)Nc3cnccc3N3CCNCC3)c(N)nn2c1` [I-N-89, 2-amino-6-(cyanomethyl)-N-(4-(piperazin-1-yl)pyridin-3-yl)pyrazolo[1,5-a]pyrimidine-3-carboxamide], the Ki was 10 to 1000 nM.
Compound `CN1CCC(NC(=O)C2CCN(c3c(F)cncc3NC(=O)c3c(N)nn4cc(F)cnc34)CC2)CC1` [I-G-20, 2-amino-6-fluoro-N-(5-fluoro-4-(4-((1-methylpiperidin-4-yl)carbamoyl)piperidin-1-yl)pyridin-3-yl)pyrazolo[1,5-a]pyrimidine-3-carboxamide] has a Ki of 10 to 1000 nM.
In the case of `Nc1nn2cc(F)cnc2c1C(=O)Nc1cncc(F)c1N1CCN(C(=O)C2CCOC2)CC1` (stereo not shown) [I-N-274, 2-amino-6-fluoro-N-(5-fluoro-4-(4-(tetrahydrofuran-3-carbonyl)piperazin-1-yl)pyridin-3-yl)pyrazolo[1,5-a]pyrimidine-3-carboxamide], the Ki is reported as 10 to 1000 nM.
`Nc1nn2cc(F)cnc2c1C(=O)Nc1cnccc1-c1ccc(C(=O)N2CCC(N3CCC3)CC2)nc1` [I-C-54, 2-amino-N-(6-(4-(azetidin-1-yl)piperidine-1-carbonyl)-[3,4′-bipyridin]-3′-yl)-6-fluoropyrazolo[1,5-a]pyrimidine-3-carboxamide] gave a Ki of 10 to 1000 nM.
`Nc1nn2cc(F)cnc2c1C(=O)Nc1cncc(F)c1N1CCC(C(=O)N2CCN3CCCC3C2)CC1` (stereo not shown) [I-G-10, 2-amino-6-fluoro-N-(5-fluoro-4-(4-(octahydropyrrolo[1,2-a]pyrazine-2-carbonyl)piperidin-1-yl)pyridin-3-yl)pyrazolo[1,5-a]pyrimidine-3-carboxamide] gave a Ki of 10 to 1000 nM.
`Cn1ccc(-c2ccncc2NC(=O)c2c(N)nn3cc(F)cnc23)n1` [I-C-68, 2-amino-6-fluoro-N-(4-(1-methyl-1H-pyrazol-3-yl)pyridin-3-yl)pyrazolo[1,5-a]pyrimidine-3-carboxamide] showed a Ki of 10 to 1000 nM.
`CN1CCN(C(=O)N2CCN(c3c(F)cncc3NC(=O)c3c(N)nn4cc(F)cnc34)CC2)CC1` [I-N-140, 2-amino-6-fluoro-N-(5-fluoro-4-(4-(4-methylpiperazine-1-carbonyl)piperazin-1-yl)pyridin-3-yl)pyrazolo[1,5-a]pyrimidine-3-carboxamide] was tested, and the Ki was 10 to 1000 nM.
`Nc1nn2cc(Cl)cnc2c1C(=O)Nc1cnccc1O[C@@H]1CCCNC1` [I-O-81, (R)-2-amino-6-chloro-N-(4-(piperidin-3-yloxy)pyridin-3-yl)pyrazolo[1,5-a]pyrimidine-3-carboxamide] was tested, and the Ki was 10 to 1000 nM.
`Nc1nn2cc(F)cnc2c1C(=O)Nc1cnccc1N1CCN2C(=O)CC[C@H]2C1` [I-N-217, (S)-2-amino-6-fluoro-N-(4-(6-oxohexahydropyrrolo[1,2-a]pyrazin-2(1H)-yl)pyridin-3-yl)pyrazolo[1,5-a]pyrimidine-3-carboxamide] gave a Ki of 10 to 1000 nM.
For `Nc1nn2cc(F)cnc2c1C(=O)Nc1cnccc1N1CCN(S(=O)(=O)C2COC2)CC1` [I-N-195, 2-amino-6-fluoro-N-(4-(4-(oxetan-3-ylsulfonyl)piperazin-1-yl)pyridin-3-yl)pyrazolo[1,5-a]pyrimidine-3-carboxamide], the Ki was 10 to 1000 nM.
For `Nc1nn2cc(F)cnc2c1C(=O)Nc1cncc(Cl)c1N1CCCC1` [I-N-281, 2-amino-N-(5-chloro-4-(pyrrolidin-1-yl)pyridin-3-yl)-6-fluoropyrazolo[1,5-a]pyrimidine-3-carboxamide], the Ki was 10 to 1000 nM.
`CN1CCC(NC(=O)C2CCN(c3c(F)cncc3NC(=O)c3c(N)nn4cc(F)cnc34)CC2)C1` (stereo not shown) [I-G-24, 2-amino-6-fluoro-N-(5-fluoro-4-(4-((1-methylpyrrolidin-3-yl)carbamoyl)piperidin-1-yl)pyridin-3-yl)pyrazolo[1,5-a]pyrimidine-3-carboxamide] showed a Ki of 10 to 1000 nM.
`Nc1nn2cc(F)cnc2c1C(=O)Nc1cnccc1O[C@H]1CCCN(C2COC2)C1` [I-O-9, (S)-2-amino-6-fluoro-N-(4-((1-(oxetan-3-yl)piperidin-3-yl)oxy)pyridin-3-yl)pyrazolo[1,5-a]pyrimidine-3-carboxamide] showed a Ki of 10 to 1000 nM.
With `Nc1nn2cc(F)cnc2c1C(=O)Nc1cnccc1-c1ccc(C(=O)N2CCN3CCC2CC3)cc1` [I-C-48, N-(4-(4-(1,4-diazabicyclo[3.2.2]nonane-4-carbonyl)phenyl)pyridin-3-yl)-2-amino-6-fluoropyrazolo[1,5-a]pyrimidine-3-carboxamide] the Ki was 10 to 1000 nM.
For `Nc1nn2cc(Cl)cnc2c1C(=O)Nc1cnccc1N1CCn2cncc2C1` [I-N-75, 2-amino-6-chloro-N-(4-(5,6-dihydroimidazo[1,5-a]pyrazin-7(8H)-yl)pyridin-3-yl)pyrazolo[1,5-a]pyrimidine-3-carboxamide], the Ki was 10 to 1000 nM.
In the case of `CN1CCN(C(=O)N2CCC(c3ccncc3NC(=O)c3c(N)nn4cc(F)cnc34)CC2)CC1` [I-C-17, 2-amino-6-fluoro-N-(4-(1-(4-methylpiperazine-1-carbonyl)piperidin-4-yl)pyridin-3-yl)pyrazolo[1,5-a]pyrimidine-3-carboxamide], the Ki is reported as 10 to 1000 nM.
`CCN1CCC(C(=O)N2CCN(c3c(F)cncc3NC(=O)c3c(N)nn4cc(F)cnc34)CC2)C1` (stereo not shown) [I-N-207, 2-amino-N-(4-(4-(1-ethylpyrrolidine-3-carbonyl)piperazin-1-yl)-5-fluoropyridin-3-yl)-6-fluoropyrazolo[1,5-a]pyrimidine-3-carboxamide] gave a Ki of 10 to 1000 nM.
For `Nc1nn2cc(F)cnc2c1C(=O)Nc1cnccc1OC1CN2CCC1CC2` (racemic) [I-O-6, (R,S)-2-amino-6-fluoro-N-(4-(quinuclidin-3-yloxy)pyridin-3-yl)pyrazolo[1,5-a]pyrimidine-3-carboxamide], the Ki was 10 to 1000 nM.
With `Nc1nn2cc(F)cnc2c1C(=O)Nc1cnccc1N1CCN2CCC[C@H]2C1` [I-N-21, (S)-2-amino-6-fluoro-N-(4-(hexahydropyrrolo[1,2-a]pyrazin-2(1H)-yl)pyridin-3-yl)pyrazolo[1,5-a]pyrimidine-3-carboxamide] the Ki was 10 to 1000 nM.
`Nc1nn2cc(F)cnc2c1C(=O)Nc1cnccc1-c1ccc(C(=O)N2CCN(C3COC3)CC2)cc1` [I-C-49, 2-amino-6-fluoro-N-(4-(4-(4-(oxetan-3-yl)piperazine-1-carbonyl)phenyl)pyridin-3-yl)pyrazolo[1,5-a]pyrimidine-3-carboxamide] gave a Ki of 10 to 1000 nM.
With `CN1CCN(C(=O)c2cnc(-c3ccncc3NC(=O)c3c(N)nn4cc(F)cnc34)c(Cl)c2)CC1` [I-C-46, 2-amino-N-(3-chloro-5-(4-methylpiperazine-1-carbonyl)-[2,4′-bipyridin]-3′-yl)-6-fluoropyrazolo[1,5-a]pyrimidine-3-carboxamide] the Ki was 10 to 1000 nM.
Work on `CN1CCCCC1C(=O)N1CCN(c2c(F)cncc2NC(=O)c2c(N)nn3cc(F)cnc23)CC1` (stereo not shown) [I-N-214, 2-amino-6-fluoro-N-(5-fluoro-4-(4-(1-methylpiperidine-2-carbonyl)piperazin-1-yl)pyridin-3-yl)pyrazolo[1,5-a]pyrimidine-3-carboxamide] yielded a Ki of 10 to 1000 nM.
In the case of `CN1CCN(c2ccc(-c3ccncc3NC(=O)c3c(N)nn4cc(F)cnc34)cn2)CC1` [I-C-21, 2-amino-6-fluoro-N-(6-(4-methylpiperazin-1-yl)-[3,4′-bipyridin]-3′-yl)pyrazolo[1,5-a]pyrimidine-3-carboxamide], the Ki is reported as 10 to 1000 nM.
`CN1CC[C@H](Oc2ccncc2NC(=O)c2c(N)nn3cc(Cl)cnc23)C1` [I-O-69, (S)-2-amino-6-chloro-N-(4-((1-methylpyrrolidin-3-yl)oxy)pyridin-3-yl)pyrazolo[1,5-a]pyrimidine-3-carboxamide] gave a Ki of 10 to 1000 nM.
For `COC1CCN(C2CCN(c3ccncc3NC(=O)c3c(N)nn4cc(Cl)cnc34)CC2)C1` (stereo not shown) [I-N-95, 2-amino-6-chloro-N-(4-(4-(3-methoxypyrrolidin-1-yl)piperidin-1-yl)pyridin-3-yl)pyrazolo[1,5-a]pyrimidine-3-carboxamide], the Ki was 10 to 1000 nM.
